Assay results from patent publication US12358954B2, “Capsid-modified rAAV vector compositions and methods therefor” (priority 2012, dated 2025).

Assays:
HeLa cells = assay: AAV-EGFP transduction of HeLa cells in the presence of NF-κB modulators; format: cell-based, human
Description: (§1) Recombinant AAV Vector Transduction Assays in Vitro. Optimal concentration of NF-κB-modulating compounds was determined by a cell viability assay with tenfold-dilutions from the IC50 or were used as described previously (Wu and Miyamoto, 2008; Kumar et al., 2008). VP16 or Bay11 (10 or 5 μM, final concentration), and PDTC (50 or 25 μM final concentration) were used either alone or in activator/inhibitor combinations. For transduction experiments, approximately 1×10^5 HeLa cells were either pre-treated with these compounds 24 hrs prior to vector infection. Cells were transduced with 500 or 2,000 vector genomes (vgs) per cell of recombinant WT-AAV or TM-AAV vectors encoding the EGFP transgene as described previously (Markusic et al., 2010). After 7 days of culture, primary human dendritic cells were transduced with AAV vectors at 2000 vgs/cell and incubated for 48 hrs. Transgene expression was assessed as total area of green fluorescence (pixel^2) per visual field (mean±SD), or by flow cytometry. Analysis of variance (ANOVA) was used to compare between test results and the control and they were determined to be statistically significant.

[1] = test system: non-canonical NF-κB pathway (p100, p52); assay: Western blot of NF-κB pathway components in HeLa cells; format: cell-based, human
Description: Western Blot Analyses. Homogenized lysates of the cell pellets from ˜2×10^6 HeLa cells or DCs, mock or pre-treated with the optimal concentration of NF-κB activators or inhibitors were used for sample preparation. Whole cell proteins were isolated using the RIPA lysis buffer (Sigma-Aldrich Co.) and cytoplasmic and nuclear proteins were extracted using a commercial kit (NE-PER Extraction Reagent Kit, Pierce Biotech, Rockford, Ill., USA) as per the manufacturer's protocol in the presence of a protease inhibitor cocktail (Halt™ Protease Inhibitor Cocktail Kit, Pierce Biotech). The protein extracts were boiled for 5 min under reducing conditions [SDS-sample buffer containing 62.5 mM Tris-HCl (pH 6.8 at 25° C.), 2% wt./vol. SDS, 10% glycerol, 50 mM DTT, 0.01% wt./vol. bromo-phenol blue (Cell Signaling Technology, Inc.)] and stored at −86° C. until further analysis. Equal volumes of samples were run on 4-15% SDS-PAGE (Bio-Rad, Hercules, Calif., USA). […] The intensity of the protein bands was measured with Adobe Photoshop CS3 Software® and normalized to proteins levels from the housekeeping gene products used as loading controls.

[2] = test system: primary human dendritic cells; assay: AAV-EGFP transduction of primary human dendritic cells with NF-κB modulators (flow cytometry); format: cell-based; settings: scAAV-transduced DCs treated with cytokines; Bay11 row: cytokines plus Bay11
Description: as §1
Cells, Antibodies and Chemicals. […]

With Cc1ccc(S(=O)(=O)/C=C/C#N)cc1 [Bay11, Bay11-7082] the “AAV vector-mediated EGFP expression, fold augmentation” value (HeLa cells; HeLa, scAAV-EGFP) was “totally ablated”, the “VP16-mediated augmented transgene expression” value (HeLa cells; activator/inhibitor combination) was “completely ablated” and the “AAV-induced increase of p100 and p52” value [1] was “ablated”. The “transgene expression in DCs” value [2] was roughly 12%.
